Consider 18 compounds from patent US20260325533A1, “CDK INHIBITOR COMPOUNDS” (ALEKSIA THERAPEUTICS, INC., priority 2023, published 2026).

What all share (type): biochemical
One test deals with CDK2/CCNE1 (Homo sapiens, UniProt P24941). In words: CDK2 homogeneous time-resolved fluorescence (HTRF) kinase assay. To be noted: CDK2/CCNE. The gist of the method:
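3 nM CDK2/CCNE1 was preincubated with compound for 20 min at 23 °C in HEPES buffer (pH not stated), then reacted 60 min with 1 mM ATP and 50 nM ULight-4E-BP1 (Thr37/46) peptide. After EDTA stop, Eu-anti-phospho-4E-BP1 antibody (2 nM) was added for 60 min and TR-FRET read at 665 nm.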

The target of a further test is CDK4/CCND3 (Homo sapiens, UniProt P11802). The test can be described thus: CDK4 homogeneous time-resolved fluorescence (HTRF) kinase assay. To be noted: CDK4/CCND. A digest of the protocol:
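CDK4/CCND3 at 1.5 nM was preincubated with compound for 20 min at 23 °C, then reacted for 60 min with 1 mM ATP and 50 nM ULight-4E-BP1 (Thr37/46) peptide. The reaction was stopped with EDTA, and phosphorylation was read by HTRF with a Eu-anti-phospho antibody. IC50 values came from 11-point half-log titrations, typically from 10 μM.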
In general terms: TR-FRET usually uses a lanthanide donor and a delayed reading to cut background.

The target of another test is CDK1/CCNB1 (Homo sapiens, UniProt P06493). In words: CDK1 homogeneous time-resolved fluorescence (HTRF) kinase assay. To be noted: CDK1/CCNB. A digest of the protocol: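 CDK1/CCNB1 0.5 nM + cpd, 20 min 23 °C; add 1 mM ATP, 50 nM ULight-4E-BP1 peptide, 60 min 23 °C; stop 10 mM EDTA; 2 nM Eu-Ab, 60 min; HTRF 665 nm. 11-pt half-log, top 10 μM typical; IC50.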
In a further test the target is CDK6/CCND1 (Homo sapiens, UniProt Q00534). In words: CDK6 homogeneous time-resolved fluorescence (HTRF) kinase assay. To be noted: CDK6/CCND, 1 mM ATP. The gist of the method:
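Enzyme pre-incubated 20 min at 23 °C with compound, then reacted 60 min at 23 °C with 1 mM ATP and 50 nM ULight-4E-BP1 (Thr37/46) peptide; 1 nM enzyme, 1% DMSO. EDTA-stopped, Eu-anti-phospho antibody TR-FRET read (665 nm or 665/615 ratio); 11-point half-log titration from 10 μM gave IC50.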

Setting [1] is: 25-250 nM, read-out: CDK2/CCNE IC50, 25-250 nM.
Setting [2] is: >250 nM, read-out: CDK4/CCND IC50, >250 nM.
The mark [3] stands for this setting: >250 nM, read-out: CDK1/CCNB IC50 >250 nM.
Where [4] appears, read: >250 nM, read-out: CDK6/CCND IC50, >250 nM.
The mark [5] stands for this setting: <25 nM, read-out: CDK2/CCNE IC50, <25 nM.
Setting [6] is: 25-250 nM, read-out: CDK4/CCND IC50, 25-250 nM.
Setting [7] is: 25-250 nM, read-out: CDK6/CCND IC50, 25-250 nM.
The mark [8] stands for this setting: 25-250 nM, read-out: CDK1/CCNB IC50, 25-250 nM.

Read-outs that look alike come from different tables or passages of the source.

Chain of CDK6/CCND1 (Q00534 whole entry): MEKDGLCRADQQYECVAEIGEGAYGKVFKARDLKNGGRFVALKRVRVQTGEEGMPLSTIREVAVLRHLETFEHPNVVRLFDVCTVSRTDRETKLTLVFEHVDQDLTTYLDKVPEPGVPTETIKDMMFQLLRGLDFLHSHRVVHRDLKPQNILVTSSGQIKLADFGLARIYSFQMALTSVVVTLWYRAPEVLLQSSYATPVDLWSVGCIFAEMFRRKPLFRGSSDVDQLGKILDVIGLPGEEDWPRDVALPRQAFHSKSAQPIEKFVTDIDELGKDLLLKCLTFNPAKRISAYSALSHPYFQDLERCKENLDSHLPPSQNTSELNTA
Chain of CDK6/CCND1 (P24385 whole entry partner): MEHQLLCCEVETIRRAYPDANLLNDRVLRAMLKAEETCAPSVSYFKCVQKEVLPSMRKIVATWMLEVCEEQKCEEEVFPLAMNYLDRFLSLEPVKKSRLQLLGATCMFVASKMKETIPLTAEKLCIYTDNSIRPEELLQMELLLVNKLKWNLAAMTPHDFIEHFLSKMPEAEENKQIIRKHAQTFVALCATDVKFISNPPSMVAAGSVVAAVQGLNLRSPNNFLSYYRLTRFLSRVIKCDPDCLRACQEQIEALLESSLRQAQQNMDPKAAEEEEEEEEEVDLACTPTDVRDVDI
Chain of CDK4/CCND3 (P11802 whole entry): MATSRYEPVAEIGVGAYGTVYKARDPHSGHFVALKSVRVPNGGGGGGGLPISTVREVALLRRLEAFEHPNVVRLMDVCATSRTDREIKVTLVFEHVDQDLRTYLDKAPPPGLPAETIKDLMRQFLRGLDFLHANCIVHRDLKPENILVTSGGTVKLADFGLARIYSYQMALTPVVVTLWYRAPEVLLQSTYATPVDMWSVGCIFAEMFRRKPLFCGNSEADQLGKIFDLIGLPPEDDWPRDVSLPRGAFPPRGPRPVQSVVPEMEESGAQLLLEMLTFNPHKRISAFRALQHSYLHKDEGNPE
Chain of CDK4/CCND3 (P30281 whole entry partner): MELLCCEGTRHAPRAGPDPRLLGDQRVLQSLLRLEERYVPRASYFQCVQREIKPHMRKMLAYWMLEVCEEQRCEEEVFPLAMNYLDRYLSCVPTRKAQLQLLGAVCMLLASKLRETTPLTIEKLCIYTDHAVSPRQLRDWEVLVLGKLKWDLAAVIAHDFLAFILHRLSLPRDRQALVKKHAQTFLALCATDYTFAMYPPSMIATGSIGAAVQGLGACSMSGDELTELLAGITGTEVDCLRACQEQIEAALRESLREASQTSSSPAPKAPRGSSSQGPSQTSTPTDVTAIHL
Chain of CDK1/CCNB1 (P06493 whole entry): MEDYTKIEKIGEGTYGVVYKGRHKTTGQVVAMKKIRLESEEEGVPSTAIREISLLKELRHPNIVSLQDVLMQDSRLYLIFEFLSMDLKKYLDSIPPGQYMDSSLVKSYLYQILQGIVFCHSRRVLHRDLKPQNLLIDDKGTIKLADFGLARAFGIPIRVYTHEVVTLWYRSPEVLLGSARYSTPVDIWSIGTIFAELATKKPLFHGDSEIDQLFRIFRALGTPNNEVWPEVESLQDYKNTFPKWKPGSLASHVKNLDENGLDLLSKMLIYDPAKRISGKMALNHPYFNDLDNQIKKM
Chain of CDK1/CCNB1 (P14635 whole entry partner): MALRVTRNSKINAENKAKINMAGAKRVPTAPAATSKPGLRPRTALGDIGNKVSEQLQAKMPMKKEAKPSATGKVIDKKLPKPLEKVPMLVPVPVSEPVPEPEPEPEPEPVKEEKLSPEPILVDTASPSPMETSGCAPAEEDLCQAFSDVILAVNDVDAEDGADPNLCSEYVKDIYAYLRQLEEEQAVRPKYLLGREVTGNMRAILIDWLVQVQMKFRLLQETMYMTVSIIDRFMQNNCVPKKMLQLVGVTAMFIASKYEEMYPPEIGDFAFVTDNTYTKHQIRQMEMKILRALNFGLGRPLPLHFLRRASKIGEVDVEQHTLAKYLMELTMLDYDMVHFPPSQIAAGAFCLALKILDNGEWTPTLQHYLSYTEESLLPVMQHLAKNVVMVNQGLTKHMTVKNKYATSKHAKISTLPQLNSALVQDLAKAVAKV

Take `CS(=O)(=O)c1ccc(Nc2cc3c(C#Cc4cc(O)cc(F)c4)nccc3cn2)cc1` [Ex 911, 3-fluoro-5-((7-((4-(methylsulfonyl)phenyl)amino)-2,6-naphthyridin-1-yl)ethynyl)phenol]: the IC50 was 25 to 250 nM at CDK2/CCNE1 (setting [1]), above 250 nM at CDK4/CCND3 (setting [2]), above 250 nM on CDK1/CCNB1 (setting [3]) and above 250 nM on CDK6/CCND1 (setting [4]).

In the case of `COc1cc(C#Cc2nccc3cnc(Nc4ccc(S(C)(=O)=O)cc4)cc23)ccc1F` [Ex 912, 5-((4-fluoro-3-methoxyphenyl)ethynyl)-N-(4-(methylsulfonyl)phenyl)-2,6-naphthyridin-3-amine], the IC50 on CDK2/CCNE1 (>250 nM, read-out: CDK2/CCNE IC50, >250 nM) is above 250 nM; on CDK4/CCND3 (setting [2]), above 250 nM; on CDK1/CCNB1 (setting [3]), above 250 nM; at CDK6/CCND1 (setting [4]), above 250 nM.

For the compound `CS(=O)(=O)c1ccc(Nc2cc3c(C#Cc4cc(C(=O)O)c(N)cc4F)nccc3cn2)cc1` [Ex 913, 2-amino-4-fluoro-5-((7-((4-(methylsulfonyl)phenyl)amino)-2,6-naphthyridin-1-yl)ethynyl)benzoic acid], the IC50 at CDK2/CCNE1 (setting [1]) was 25 to 250 nM; at CDK4/CCND3 (setting [2]), above 250 nM; on CDK1/CCNB1 (setting [3]), above 250 nM; at CDK6/CCND1 (setting [4]), above 250 nM.

In the case of `Cc1c(-c2nccc3cnc(Nc4ccc5c(c4)CCCS5(=O)=O)cc23)ccc2c1cnn2CC(C)(C)O` [Ex 914, 6-((5-(1-(2-hydroxy-2-methylpropyl)-4-methyl-1H-indazol-5-yl)-2,6-naphthyridin-3-yl)amino)thiochromane 1,1-dioxide], the IC50 is below 25 nM on CDK2/CCNE1 (setting [5]), 25 to 250 nM at CDK4/CCND3 (setting [6]), above 250 nM at CDK1/CCNB1 (setting [3]) and 25 to 250 nM at CDK6/CCND1 (setting [7]).

For `Cc1c(-c2nccc3cnc(Nc4ccc5c(c4)CCS5(=O)=O)cc23)ccc2c1cnn2CC(C)(C)O` [Ex 915, 5-((5-(1-(2-hydroxy-2-methylpropyl)-4-methyl-1H-indazol-5-yl)-2,6-naphthyridin-3-yl)amino)-2,3-dihydrobenzo[b]thiophene 1,1-dioxide], the IC50 at CDK2/CCNE1 (setting [5]) was below 25 nM; on CDK4/CCND3 (setting [6]), 25 to 250 nM; at CDK1/CCNB1 (setting [3]), above 250 nM; at CDK6/CCND1 (setting [7]) it was 25 to 250 nM.

Regarding `Cc1c(-c2nccc3cnc(Nc4cccc5ccccc45)cc23)ccc2c1cnn2CC(C)(C)O` [Ex 916, 2-methyl-1-(4-methyl-5-(7-(naphthalen-1-ylamino)-2,6-naphthyridin-1-yl)-1H-indazol-1-yl)propan-2-ol], the IC50 is 25 to 250 nM on CDK2/CCNE1 (setting [1]), above 250 nM on CDK4/CCND3 (setting [2]), above 250 nM on CDK1/CCNB1 (setting [3]) and above 250 nM on CDK6/CCND1 (setting [4]).

For `N#Cc1ccc(C#Cc2nccc3cnc(Nc4cnc(O)c(N5CCNCC5)c4)cc23)cc1` [Ex 917, 4-((7-((6-hydroxy-5-(piperazin-1-yl)pyridin-3-yl)amino)-2,6-naphthyridin-1-yl)ethynyl)benzonitrile], the IC50 at CDK2/CCNE1 (setting [1]) was 25 to 250 nM; at CDK4/CCND3 (setting [2]) it was above 250 nM; on CDK1/CCNB1 (setting [3]), above 250 nM; on CDK6/CCND1 (setting [4]), above 250 nM.

Take `Cc1c(-c2nccc3cnc(Nc4ccc(S(C)(=O)=O)c(N5CCN(CCO)CC5)c4)cc23)ccc2c1cnn2CC(C)(C)O` [Ex 919, 1-(5-(7-((3-(4-(2-hydroxyethyl)piperazin-1-yl)-4-(methylsulfonyl)phenyl)amino)-2,6-naphthyridin-1-yl)-4-methyl-1H-indazol-1-yl)-2-methylpropan-2-ol]: the IC50 on CDK2/CCNE1 (setting [1]) was 25 to 250 nM; on CDK4/CCND3 (setting [2]), above 250 nM; on CDK1/CCNB1 (setting [3]) it was above 250 nM; at CDK6/CCND1 (setting [4]) it was above 250 nM.

Turning to `N#Cc1ccc(C#Cc2nccc3cnc(Nc4cnc(O)c(N5CCN(CCO)CC5)c4)cc23)cc1` [Ex 920, 4-((7-((6-hydroxy-5-(4-(2-hydroxyethyl)piperazin-1-yl)pyridin-3-yl)amino)-2,6-naphthyridin-1-yl)ethynyl)benzonitrile], the IC50 at CDK2/CCNE1 (setting [1]) was 25 to 250 nM; at CDK4/CCND3 (setting [2]), above 250 nM; at CDK1/CCNB1 (setting [3]), above 250 nM; on CDK6/CCND1 (setting [4]), above 250 nM.

As for `Cc1c(-c2nccc3cnc(Nc4ccc(S(N)(=O)=O)cc4)cc23)ccc2c1cnn2CC(C)(C)O` [Ex 921, 4-((5-(1-(2-hydroxy-2-methylpropyl)-4-methyl-1H-indazol-5-yl)-2,6-naphthyridin-3-yl)amino)benzenesulfonamide], the IC50 was below 25 nM on CDK2/CCNE1 (setting [5]), 25 to 250 nM at CDK4/CCND3 (setting [6]), 25 to 250 nM at CDK1/CCNB1 (setting [8]) and 25 to 250 nM on CDK6/CCND1 (setting [7]).

As for `Cc1c(-c2nccc3cnc(Nc4ccc(S(=O)(=O)N5CCOCC5)cc4)cc23)ccc2c1cnn2CC(C)(C)O` [Ex 922, 2-methyl-1-(4-methyl-5-(7-((4-(morpholinosulfonyl)phenyl)amino)-2,6-naphthyridin-1-yl)-1H-indazol-1-yl)propan-2-ol], the IC50 is below 25 nM on CDK2/CCNE1 (setting [5]), 25 to 250 nM at CDK4/CCND3 (setting [6]), above 250 nM on CDK1/CCNB1 (setting [3]) and 25 to 250 nM on CDK6/CCND1 (setting [7]).

As to `Cc1c(-c2nccc3cnc(Nc4ccc(S(=O)(=O)N5CCCCC5)cc4)cc23)ccc2c1cnn2CC(C)(C)O` [Ex 923, 2-methyl-1-(4-methyl-5-(7-((4-(piperidin-1-ylsulfonyl)phenyl)amino)-2,6-naphthyridin-1-yl)-1H-indazol-1-yl)propan-2-ol], the IC50 at CDK2/CCNE1 (setting [1]) was 25 to 250 nM; on CDK4/CCND3 (setting [2]), above 250 nM; on CDK1/CCNB1 (setting [3]) it was above 250 nM; on CDK6/CCND1 (setting [4]) it was above 250 nM.

With `Cc1c(-c2nccc3cnc(Nc4ccc(S(=O)(=O)Nc5ccccn5)cc4)cc23)ccc2c1cnn2CC(C)(C)O` [Ex 924, 4-((5-(1-(2-hydroxy-2-methylpropyl)-4-methyl-1H-indazol-5-yl)-2,6-naphthyridin-3-yl)amino)-N-(pyridin-2-yl)benzenesulfonamide], the IC50 at CDK2/CCNE1 (setting [5]) is below 25 nM; on CDK4/CCND3 (setting [6]), 25 to 250 nM; on CDK1/CCNB1 (setting [3]), above 250 nM; at CDK6/CCND1 (setting [7]), 25 to 250 nM.

Regarding `Cc1c(-c2nccc3cnc(Nc4ccc(S(=O)(=O)O)cc4)cc23)ccc2c1cnn2CC(C)(C)O` [Ex 925, 4-((5-(1-(2-hydroxy-2-methylpropyl)-4-methyl-1H-indazol-5-yl)-2,6-naphthyridin-3-yl)amino)benzenesulfonic acid], the IC50 was 25 to 250 nM on CDK2/CCNE1 (setting [1]), above 250 nM at CDK4/CCND3 (setting [2]), above 250 nM at CDK1/CCNB1 (setting [3]) and above 250 nM at CDK6/CCND1 (setting [4]).

For the compound `Cc1cc(C)nc(NS(=O)(=O)c2ccc(Nc3cc4c(-c5ccc6c(cnn6CC(C)(C)O)c5C)nccc4cn3)cc2)n1` [Ex 926, N-(4,6-dimethylpyrimidin-2-yl)-4-((5-(1-(2-hydroxy-2-methylpropyl)-4-methyl-1H-indazol-5-yl)-2,6-naphthyridin-3-yl)amino)benzenesulfonamide], the IC50 was below 25 nM on CDK2/CCNE1 (setting [5]), above 250 nM on CDK4/CCND3 (setting [2]), 25 to 250 nM on CDK1/CCNB1 (setting [8]) and 25 to 250 nM at CDK6/CCND1 (setting [7]).

With `Cc1c(-c2nccc3cnc(Nc4ccc(S(=O)(=O)Nc5ncccn5)cc4)cc23)ccc2c1cnn2CC(C)(C)O` [Ex 927, 4-((5-(1-(2-hydroxy-2-methylpropyl)-4-methyl-1H-indazol-5-yl)-2,6-naphthyridin-3-yl)amino)-N-(pyrimidin-2-yl)benzenesulfonamide], the IC50 on CDK2/CCNE1 (setting [5]) was below 25 nM; at CDK4/CCND3 (setting [2]) it was above 250 nM; at CDK1/CCNB1 (setting [3]), above 250 nM; at CDK6/CCND1 (setting [4]) it was above 250 nM.

As to `Cc1c(-c2nccc3cnc(Nc4ccc(-n5ccnc5)cc4)cc23)ccc2c1cnn2CC(C)(C)O` [Ex 928, 1-(5-(7-((4-(1H-imidazol-1-yl)phenyl)amino)-2,6-naphthyridin-1-yl)-4-methyl-1H-indazol-1-yl)-2-methylpropan-2-ol], the IC50 on CDK2/CCNE1 (setting [5]) was below 25 nM; on CDK4/CCND3 (setting [6]), 25 to 250 nM; at CDK1/CCNB1 (setting [8]), 25 to 250 nM; at CDK6/CCND1 (setting [7]), 25 to 250 nM.

Take `Cc1c(-c2nccc3cnc(Nc4cccc(C(=O)Nc5ccccc5)c4)cc23)ccc2c1cnn2CC(C)(C)O` [Ex 929, 3-((5-(1-(2-hydroxy-2-methylpropyl)-4-methyl-1H-indazol-5-yl)-2,6-naphthyridin-3-yl)amino)-N-phenylbenzamide]: the IC50 is 25 to 250 nM at CDK2/CCNE1 (setting [1]), above 250 nM on CDK4/CCND3 (setting [2]), above 250 nM on CDK1/CCNB1 (setting [3]) and above 250 nM at CDK6/CCND1 (setting [4]).
